Measured values as given in patent US11446287B2, “Compounds and methods for EP300 or CBP modulation and indications therefor” (Opna Immuno-Oncology SA, priority 2019, dated 2022).

What follows are molecules tested against T1, Recombinant human EP300 containing the bromodomain (EP300-BD (1040-1161)) (Homo sapiens, UniProt Q09472) (assay: EP300 Alphascreen binding assay).
T1 construct: Recombinant human EP300 bromodomain (EP300-BD (1040-1161)); made in house; host or cells: E. coli BL21-CodonPlus (DE3), modified pET vector
T1 sequence (Q09472 1040-1161): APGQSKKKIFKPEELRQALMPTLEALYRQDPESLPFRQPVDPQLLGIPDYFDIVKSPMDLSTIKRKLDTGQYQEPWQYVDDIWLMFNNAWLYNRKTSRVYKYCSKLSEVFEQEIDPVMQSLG
Method in brief: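 Displacement of a biotinylated acetyl-K56 histone H3 peptide from the N-His bromodomain construct (1040-1161) measured by AlphaScreen proximity, beads at 7.5 μg/ml final, read 60 min after addition. Protein, peptide and compound first incubated 1 h at room temperature, pH 7.5 HEPES buffer; IC50 by four-parameter logistic fit.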
In the case of `Cc1noc(C)c1-c1cnc2c(c1)c(-c1ccc(C(=O)O)cc1)cn2C(C)c1ncccn1` (stereo not drawn) [P-0013, 4-(5-(3,5-dimethylisoxazol-4-yl)-1-(1-(pyrimidin-2-yl)ethyl)-1H-pyrrolo[2,3-b]pyridin-3-yl)benzoic acid], the IC50 is reported as 0.1 to 1000 nM.
In the case of `Cc1noc(C)c1-c1cnc2c(c1)c(-c1ccc(C(=O)O)cc1)cn2C(C)c1ccc(F)cn1` (stereo not drawn) [P-0014, 4-(5-(3,5-dimethylisoxazol-4-yl)-1-(1-(5-fluoropyridin-2-yl)ethyl)-1H-pyrrolo[2,3-b]pyridin-3-yl)benzoic acid], the IC50 is reported as 0.1 to 1000 nM.
Work on `Cc1noc(C)c1-c1cnc2c(c1)c(-c1cccc(C(=O)O)c1)cn2C(c1ccccn1)C1CCCC1` (stereo not drawn) [P-0015, 3-(1-(cyclopentyl(pyridin-2-yl)methyl)-5-(3,5-dimethylisoxazol-4-yl)-1H-pyrrolo[2,3-b]pyridin-3-yl)benzoic acid] yielded an IC50 of 0.1 to 1000 nM.
`Cc1noc(C)c1-c1cnc2c(c1)c(-c1ccc(F)c(C(=O)O)c1)cn2C(c1ccccn1)C1CCCC1` (stereo not drawn) [P-0016, 5-(1-(cyclopentyl(pyridin-2-yl)methyl)-5-(3,5-dimethylisoxazol-4-yl)-1H-pyrrolo[2,3-b]pyridin-3-yl)-2-fluorobenzoic acid] gave an IC50 of 0.1 to 1000 nM.
`Cc1noc(C)c1-c1cnc2c(c1)c(-c1ccnc(C(=O)O)c1)cn2C(c1ccccn1)C1CCCC1` (stereo not drawn) [P-0017, 4-(1-(cyclopentyl(pyridin-2-yl)methyl)-5-(3,5-dimethylisoxazol-4-yl)-1H-pyrrolo[2,3-b]pyridin-3-yl)picolinic acid] gave an IC50 of 0.1 to 1000 nM.
For `Cc1noc(C)c1-c1cnc2c(c1)c(-c1cccc(CC(=O)O)c1)cn2C(c1ccccn1)C1CCCC1` (stereo not drawn) [P-0018, 2-(3-(1-(cyclopentyl(pyridin-2-yl)methyl)-5-(3,5-dimethylisoxazol-4-yl)-1H-pyrrolo[2,3-b]pyridin-3-yl)phenyl)acetic acid], the IC50 was 0.1 to 1000 nM.
Molecule `Cc1noc(C)c1-c1cnc2c(c1)c(-c1ccncc1)cn2C(c1ccccn1)C1CCCC1` (stereo not drawn) [P-0019, 4-(1-(cyclopentyl(pyridin-2-yl)methyl)-3-(pyridin-4-yl)-1H-pyrrolo[2,3-b]pyridin-5-yl)-3,5-dimethylisoxazole] has an IC50 of 1000 to 8000 nM.
For `Cc1noc(C)c1-c1cnc2c(c1)c(-c1ccc(C(=O)O)cc1OC1CC1)cn2[C@@H](C)c1ccccn1` [P-0170, (S)-3-cyclopropoxy-4-(5-(3,5-dimethylisoxazol-4-yl)-1-(1-(pyridin-2-yl)ethyl)-1H-pyrrolo[2,3-b]pyridin-3-yl)benzoic acid], the IC50 was 0.1 to 1000 nM.
`Cc1noc(C)c1-c1cnc2c(-c3ccc(C(=O)O)cc3C#CC3CC3)cn([C@@H](C)c3ccccn3)c2c1` [P-0171, (S)-3-(cyclopropylethynyl)-4-(6-(3,5-dimethylisoxazol-4-yl)-1-(1-(pyridin-2-yl)ethyl)-1H-pyrrolo[3,2-b]pyridin-3-yl)benzoic acid] gave an IC50 of 0.1 to 1000 nM.
`COc1ccc(C(=O)O)cc1-c1cn(C(C)(c2ccccn2)c2ccccn2)c2cc(-c3c(C)noc3C)cnc12` [P-0172, 3-(1-(1,1-di(pyridin-2-yl)ethyl)-6-(3,5-dimethylisoxazol-4-yl)-1H-pyrrolo[3,2-b]pyridin-3-yl)-4-methoxybenzoic acid] gave an IC50 of 1000 to 8000 nM.
For `CCOc1cc(C(=O)O)cc(OCC)c1-n1cc(-c2cccnc2)c2ncc(-c3c(C)noc3C)cc21` [P-0173, 4-(6-(3,5-dimethylisoxazol-4-yl)-3-(pyridin-3-yl)-1H-pyrrolo[3,2-b]pyridin-1-yl)-3,5-diethoxybenzoic acid], the IC50 was 0.1 to 1000 nM.
`CCOc1cc(C(=O)O)cc(OC(C)C)c1-c1cn([C@@H](C)c2ccccn2)c2ncc(-c3c(C)noc3C)cc12` [P-0174, (S)-4-(5-(3,5-dimethylisoxazol-4-yl)-1-(1-(pyridin-2-yl)ethyl)-1H-pyrrolo[2,3-b]pyridin-3-yl)-3-ethoxy-5-isopropoxybenzoic acid] was tested, and the IC50 was 0.1 to 1000 nM.
Molecule `Cc1noc(C)c1-c1cnc2c(c1)c(-c1ccc(C(=O)O)cc1OC(F)(F)F)cn2-c1cccnc1` [P-0175, 4-(5-(3,5-dimethylisoxazol-4-yl)-1-(pyridin-3-yl)-1H-pyrrolo[2,3-b]pyridin-3-yl)-3-(trifluoromethoxy)benzoic acid] has an IC50 of 0.1 to 1000 nM.
Work on `COc1ccncc1-n1cc(-c2ccc(C(=O)O)cc2OC(F)(F)F)c2cc(-c3c(C)noc3C)cnc21` [P-0176, 4-(5-(3,5-dimethylisoxazol-4-yl)-1-(4-methoxypyridin-3-yl)-1H-pyrrolo[2,3-b]pyridin-3-yl)-3-(trifluoromethoxy)benzoic acid] yielded an IC50 of 0.1 to 1000 nM.
Work on `Cc1noc(C)c1-c1cnc2c(c1)c(-c1ccc(C(=O)O)cc1OC(F)(F)F)cn2-c1cnccc1Cl` [P-0177, 4-(1-(4-chloropyridin-3-yl)-5-(3,5-dimethylisoxazol-4-yl)-1H-pyrrolo[2,3-b]pyridin-3-yl)-3-(trifluoromethoxy)benzoic acid] yielded an IC50 of 0.1 to 1000 nM.
With `Cc1noc(C)c1-c1cnc2c(c1)c(-c1ccc(C(=O)O)cc1C#CC1CC1)cn2[C@@H](C)c1ccccn1` [P-0178, (S)-3-(cyclopropylethynyl)-4-(5-(3,5-dimethylisoxazol-4-yl)-1-(1-(pyridin-2-yl)ethyl)-1H-pyrrolo[2,3-b]pyridin-3-yl)benzoic acid] the IC50 was 1000 to 8000 nM.
`Cc1noc(C)c1-c1cnc2c(c1)c(-c1ccc(C(=O)O)cc1OC1CCC1)cn2[C@@H](C)c1ccccn1` [P-0179, (S)-3-cyclobutoxy-4-(5-(3,5-dimethylisoxazol-4-yl)-1-(1-(pyridin-2-yl)ethyl)-1H-pyrrolo[2,3-b]pyridin-3-yl)benzoic acid] showed an IC50 of 0.1 to 1000 nM.
`Cc1noc(C)c1-c1cnc2c(c1)c(-c1ccc(C(=O)O)cc1OC(F)(F)F)cn2-c1ncccc1C(F)(F)F` [P-0180, 4-(5-(3,5-dimethylisoxazol-4-yl)-1-(3-(trifluoromethyl)pyridin-2-yl)-1H-pyrrolo[2,3-b]pyridin-3-yl)-3-(trifluoromethoxy)benzoic acid] was tested, and the IC50 was 0.1 to 1000 nM.
Work on `Cc1noc(C)c1-c1cnc2c(c1)c(-c1ccc(C(=O)O)cc1C1CC1)cn2[C@@H](C)c1ccccn1` [P-0181, (S)-3-cyclopropyl-4-(5-(3,5-dimethylisoxazol-4-yl)-1-(1-(pyridin-2-yl)ethyl)-1H-pyrrolo[2,3-b]pyridin-3-yl)benzoic acid] yielded an IC50 of 0.1 to 1000 nM.
With `Cc1noc(C)c1-c1cnc2c(c1)c(-c1ccc(C(=O)O)cc1OC(F)(F)F)cn2-c1ncccc1F` [P-0182, 4-(5-(3,5-dimethylisoxazol-4-yl)-1-(3-fluoropyridin-2-yl)-1H-pyrrolo[2,3-b]pyridin-3-yl)-3-(trifluoromethoxy)benzoic acid] the IC50 was 0.1 to 1000 nM.
`Cc1noc(C)c1-c1cnc2c(c1)c(-c1ccc(C(=O)O)cc1OC(F)(F)F)cn2-c1ncccc1Cl` [P-0183, 4-(1-(3-chloropyridin-2-yl)-5-(3,5-dimethylisoxazol-4-yl)-1H-pyrrolo[2,3-b]pyridin-3-yl)-3-(trifluoromethoxy)benzoic acid] gave an IC50 of 0.1 to 1000 nM.
`CCOc1cc(C(=O)O)cc(OCC)c1-n1cc(-c2ccc(F)cc2)c2ncc(-c3c(C)noc3C)cc21` [P-0184, 4-(6-(3,5-dimethylisoxazol-4-yl)-3-(4-fluorophenyl)-1H-pyrrolo[3,2-b]pyridin-1-yl)-3,5-diethoxybenzoic acid] gave an IC50 of 0.1 to 1000 nM.
`CCOc1cc(C(=O)O)cc(OCC)c1-n1cc(-c2cccc(Cl)c2)c2ncc(-c3c(C)noc3C)cc21` [P-0185, 4-(3-(3-chlorophenyl)-6-(3,5-dimethylisoxazol-4-yl)-1H-pyrrolo[3,2-b]pyridin-1-yl)-3,5-diethoxybenzoic acid] showed an IC50 of 0.1 to 1000 nM.
For `CCOc1cc(C(=O)O)cc(OCC)c1-n1cc(-c2ccc(F)cc2F)c2ncc(-c3c(C)noc3C)cc21` [P-0186, 4-(3-(2,4-difluorophenyl)-6-(3,5-dimethylisoxazol-4-yl)-1H-pyrrolo[3,2-b]pyridin-1-yl)-3,5-diethoxybenzoic acid], the IC50 was 0.1 to 1000 nM.
`CCOc1cc(C(=O)O)cc(OCC)c1-n1cc(Cc2ccccn2)c2ncc(-c3c(C)noc3C)cc21` [P-0187, 4-(6-(3,5-dimethylisoxazol-4-yl)-3-(pyridin-2-ylmethyl)-1H-pyrrolo[3,2-b]pyridin-1-yl)-3,5-diethoxybenzoic acid] gave an IC50 of 0.1 to 1000 nM.
`Cc1noc(C)c1-c1cnc2c(c1)c(-c1ccc(C(=O)O)cc1OC(F)(F)F)cn2-c1ccccc1` [P-0188, 4-(5-(3,5-dimethylisoxazol-4-yl)-1-phenyl-1H-pyrrolo[2,3-b]pyridin-3-yl)-3-(trifluoromethoxy)benzoic acid] was tested, and the IC50 was 0.1 to 1000 nM.
With `Cc1ccncc1-n1cc(-c2ccc(C(=O)O)cc2OC(F)(F)F)c2cc(-c3c(C)noc3C)cnc21` [P-0189, 4-(5-(3,5-dimethylisoxazol-4-yl)-1-(4-methylpyridin-3-yl)-1H-pyrrolo[2,3-b]pyridin-3-yl)-3-(trifluoromethoxy)benzoic acid] the IC50 was 0.1 to 1000 nM.
Work on `CCOc1cc(C(=O)O)cc(OCC)c1-n1cc(CC2CCC2)c2ncc(-c3c(C)nnn3C)cc21` [P-0190, 4-(3-(cyclobutylmethyl)-6-(1,4-dimethyl-1H-1,2,3-triazol-5-yl)-1H-pyrrolo[3,2-b]pyridin-1-yl)-3,5-diethoxybenzoic acid] yielded an IC50 of 0.1 to 1000 nM.
In the case of `Cc1noc(C)c1-c1cnc2c(c1)c(-c1ccc(C(=O)O)cc1OC(F)(F)F)cn2CCN1CCOCC1` [P-0191, 4-(5-(3,5-dimethylisoxazol-4-yl)-1-(2-morpholinoethyl)-1H-pyrrolo[2,3-b]pyridin-3-yl)-3-(trifluoromethoxy)benzoic acid], the IC50 is reported as 0.1 to 1000 nM.
`CCOc1cc(C(=O)O)cc(OCC)c1-n1cc(-c2ccc(C3CC3)nc2)c2ncc(-c3c(C)noc3C)cc21` [P-0192, 4-(3-(6-cyclopropylpyridin-3-yl)-6-(3,5-dimethylisoxazol-4-yl)-1H-pyrrolo[3,2-b]pyridin-1-yl)-3,5-diethoxybenzoic acid] showed an IC50 of 0.1 to 1000 nM.
